Literature values in patent US20220211667A1, “COMPOSITION FOR THE INTRAPERITONEAL TREATMENT OF SECONDARY BACTERIAL PERITONITIS WITH REDUCTION OF COMPLICATIONS” (priority 2019, published 2022).

What was measured:
[1] = system: strains of organisms from the susceptible genera
[2] = system: Pseudomonas aeruginosa; details: maximum, for Pseudomonas aeruginosa; controlled clinical trials, oral or intravenous
[3] = system: resistant bacterial strains; details: overall; controlled clinical trials, oral or intravenous
[4] = not given; remark: listed apart in the source
[5] = system: polymorphonuclear leukocytes
[6] = intraperitoneal; third and last day of treatment

## C[C@@H]1O[C@@H]1P(=O)(O)O [Fosfomycin disodium]
other
  solubility in water: highly soluble in water
  pH of 5% solution: 9.0-10.5

## C[C@@H]1O[C@@H]1P(=O)(O)O.NC(CO)(CO)CO [Fosfomycin trometamol]
other
  solubility in water: highly soluble in water
  pH of 5% solution: 3.5-5.5

## C[C@@H]1O[C@@H]1P(=O)(O)O [fosfomycin, [(2R,3S)-3-methyloxiran-2-yl]phosphonic acid]
[1]; early studies, various antibiotic combinations
  tested strains showing synergistic effect: 70-100%
[1]; subsequent more extensive studies
  synergy rates: 36-74%
[2]
  appearance of resistant bacterial strains: 15%
[3]
  appearance of resistant bacterial strains: 3.0%
[4]; evidence of allergy
  eosinophilia: 0.2%
  transient rashes: 0.3 % of cases
[4]; in vivo
  transiently raised liver enzymes: 0.3 % of cases
[5]
  concentration in polymorphonuclear leukocytes relative to extracellular fluid: twice those of the extracellular fluid

## GM-CSF: cytokine of the colony-stimulating factor family; mature human protein of 127 amino-acid residues, SEQ ID NO: 1
[6]
  patients with minor flu-like symptoms: 2 of 8
